Experimental data reported in publication PMC5659129, “Determinants of the Inhibition of DprE1 and CYP2C9 by Antitubercular Thiophenes” (Angewandte Chemie (International Ed. in English), 2017).
Values after ≈ are worked out from the molar mass of the structure shown. Where two headings read alike, the source gives them in different places.

Experiments:
Mtb WT = assay: microbe, parasite or virus in culture; type: cell-based, Mycobacterium tuberculosis; conditions: for MIC: Mycobacterium tuberculosis, 168 h
Mtb Erdman [1] = type: in vivo, BALB/c mouse; conditions: 200 mg kg−1, oral, 4 weeks, chronic phase
CYP2C19 = CYP2C19 (Homo sapiens, UniProt P33261); conditions: microsomes
CYP2C19, sequence (P33261 whole entry): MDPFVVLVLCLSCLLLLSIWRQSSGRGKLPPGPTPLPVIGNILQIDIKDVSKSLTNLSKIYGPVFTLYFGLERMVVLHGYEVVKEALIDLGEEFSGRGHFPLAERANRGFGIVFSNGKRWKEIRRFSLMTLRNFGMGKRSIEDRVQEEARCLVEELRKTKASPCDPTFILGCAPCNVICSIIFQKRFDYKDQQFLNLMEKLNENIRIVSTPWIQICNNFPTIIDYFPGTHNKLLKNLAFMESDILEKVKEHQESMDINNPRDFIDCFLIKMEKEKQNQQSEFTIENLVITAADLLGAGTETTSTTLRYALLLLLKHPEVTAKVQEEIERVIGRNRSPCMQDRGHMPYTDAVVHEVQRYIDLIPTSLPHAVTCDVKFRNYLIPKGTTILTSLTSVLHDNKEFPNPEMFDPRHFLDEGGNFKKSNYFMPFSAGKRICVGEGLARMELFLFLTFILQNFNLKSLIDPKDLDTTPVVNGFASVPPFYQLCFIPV

HepG2 cell line = assay: In vitro cytotoxicity assay, HepG2; conditions: up to a concentration of 100 μM
CYP2D6 = CYP2D6 (Homo sapiens, UniProt P10635); conditions: microsomes
CYP2D6, sequence (P10635 whole entry): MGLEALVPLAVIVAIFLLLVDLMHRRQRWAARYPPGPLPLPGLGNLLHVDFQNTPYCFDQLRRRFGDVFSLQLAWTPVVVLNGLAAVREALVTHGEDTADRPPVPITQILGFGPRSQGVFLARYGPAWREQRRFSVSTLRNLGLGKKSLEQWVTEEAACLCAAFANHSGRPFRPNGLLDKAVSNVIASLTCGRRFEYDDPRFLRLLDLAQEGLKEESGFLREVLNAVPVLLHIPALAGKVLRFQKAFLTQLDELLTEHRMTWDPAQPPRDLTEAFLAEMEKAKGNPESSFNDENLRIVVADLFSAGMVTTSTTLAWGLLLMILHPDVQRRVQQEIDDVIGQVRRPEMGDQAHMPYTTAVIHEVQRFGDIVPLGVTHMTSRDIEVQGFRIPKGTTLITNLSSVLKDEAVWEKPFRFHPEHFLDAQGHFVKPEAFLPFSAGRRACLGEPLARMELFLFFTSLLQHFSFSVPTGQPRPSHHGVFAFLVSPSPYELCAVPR

CYP1A2 = CYP1A2 (Homo sapiens, UniProt P05177); conditions: microsomes
CYP1A2, sequence (P05177 whole entry): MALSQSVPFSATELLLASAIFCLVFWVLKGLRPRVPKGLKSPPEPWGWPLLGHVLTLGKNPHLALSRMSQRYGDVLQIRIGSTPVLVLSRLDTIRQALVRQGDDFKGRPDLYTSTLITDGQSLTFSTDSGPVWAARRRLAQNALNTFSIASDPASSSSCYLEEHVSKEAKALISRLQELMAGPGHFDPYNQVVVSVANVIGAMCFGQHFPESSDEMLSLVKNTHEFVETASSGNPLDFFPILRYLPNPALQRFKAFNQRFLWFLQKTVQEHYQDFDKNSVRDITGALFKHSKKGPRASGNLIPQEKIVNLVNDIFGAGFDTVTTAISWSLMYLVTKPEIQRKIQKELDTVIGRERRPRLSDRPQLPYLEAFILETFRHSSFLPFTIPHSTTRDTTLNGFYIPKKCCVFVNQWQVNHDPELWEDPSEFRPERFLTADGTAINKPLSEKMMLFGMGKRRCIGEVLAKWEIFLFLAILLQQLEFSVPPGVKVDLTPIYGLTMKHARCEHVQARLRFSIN

[2] = Mini-Ames mutagenicity test
CYP2C9 [3] = target: T1, CYP2C9 (Homo sapiens, UniProt P11712); conditions: for IC50 ratio (CYP2C9 over DprE1): selectivity
T1 sequence (P11712 whole entry): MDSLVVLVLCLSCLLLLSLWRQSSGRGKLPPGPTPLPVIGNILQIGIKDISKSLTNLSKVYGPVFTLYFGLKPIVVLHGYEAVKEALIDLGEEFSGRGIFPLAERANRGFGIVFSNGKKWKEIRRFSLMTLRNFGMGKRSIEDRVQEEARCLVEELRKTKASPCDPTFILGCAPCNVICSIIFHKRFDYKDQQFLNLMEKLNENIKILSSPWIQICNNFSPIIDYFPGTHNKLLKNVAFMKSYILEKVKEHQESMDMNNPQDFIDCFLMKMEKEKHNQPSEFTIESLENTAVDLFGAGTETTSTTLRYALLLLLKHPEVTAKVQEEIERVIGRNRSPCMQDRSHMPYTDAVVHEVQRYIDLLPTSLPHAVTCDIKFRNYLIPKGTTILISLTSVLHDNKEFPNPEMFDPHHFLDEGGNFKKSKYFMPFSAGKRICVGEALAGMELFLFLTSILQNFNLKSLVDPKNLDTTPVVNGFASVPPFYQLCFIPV

CYP3A4 = CYP3A4 (Homo sapiens, UniProt P08684); conditions: microsomes
CYP3A4, sequence (P08684 whole entry): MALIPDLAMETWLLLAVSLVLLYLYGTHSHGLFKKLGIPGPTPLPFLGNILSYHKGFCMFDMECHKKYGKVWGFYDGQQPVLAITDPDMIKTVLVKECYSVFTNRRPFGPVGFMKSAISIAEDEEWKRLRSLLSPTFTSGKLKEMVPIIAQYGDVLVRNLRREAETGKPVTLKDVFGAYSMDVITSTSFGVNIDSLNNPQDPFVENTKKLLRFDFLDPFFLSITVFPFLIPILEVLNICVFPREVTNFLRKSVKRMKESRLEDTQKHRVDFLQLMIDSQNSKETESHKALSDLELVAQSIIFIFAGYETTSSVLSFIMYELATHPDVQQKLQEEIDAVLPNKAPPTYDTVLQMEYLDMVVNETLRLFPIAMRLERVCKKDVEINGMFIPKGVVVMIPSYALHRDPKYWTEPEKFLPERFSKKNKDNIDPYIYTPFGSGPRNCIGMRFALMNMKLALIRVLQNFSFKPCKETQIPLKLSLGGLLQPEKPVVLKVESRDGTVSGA

Vero cell line = assay: In vitro cytotoxicity assay (MTT), Vero; conditions: up to a concentration of 100 μM
Protocol: In vitro cytotoxicity assay. Vero epithelial cells (from African green monkey; ATCC
CCL-81) were cultured in Dulbecco’s modified Eagle’s medium (DMEM) supplemented
with 10% fetal bovine serum (FBS) and maintained in a humidified incubator (37°C in
5% CO2). Cells were dislodged with a cell scraper, collected by centrifugation,
resuspended in fresh medium at 10^6 cells/ml, dispensed into 96-well microtiter plates
(100 ml/well), and incubated for 18 h at 37°C. Two-fold serial dilutions of test
compounds in DMEM with FBS were subsequently added, and cells were incubated for
another 72 h. In triplicate studies, the cytopathic effects of compounds were evaluated
colorimetrically by using the 3-(4, 5- dimethyl-2-thiazolyl)-2, 5-diphenyl-2H-tetrazolium
bromide (MTT) cell proliferation assay (ATCC).

Mtb Erdman [4] = type: in vivo, BALB/c mouse; conditions: 3 weeks, acute phase
hERG potassium channel = hERG potassium channel (Homo sapiens, UniProt Q12809); assay: cell-based
hERG potassium channel, sequence (Q12809 whole entry): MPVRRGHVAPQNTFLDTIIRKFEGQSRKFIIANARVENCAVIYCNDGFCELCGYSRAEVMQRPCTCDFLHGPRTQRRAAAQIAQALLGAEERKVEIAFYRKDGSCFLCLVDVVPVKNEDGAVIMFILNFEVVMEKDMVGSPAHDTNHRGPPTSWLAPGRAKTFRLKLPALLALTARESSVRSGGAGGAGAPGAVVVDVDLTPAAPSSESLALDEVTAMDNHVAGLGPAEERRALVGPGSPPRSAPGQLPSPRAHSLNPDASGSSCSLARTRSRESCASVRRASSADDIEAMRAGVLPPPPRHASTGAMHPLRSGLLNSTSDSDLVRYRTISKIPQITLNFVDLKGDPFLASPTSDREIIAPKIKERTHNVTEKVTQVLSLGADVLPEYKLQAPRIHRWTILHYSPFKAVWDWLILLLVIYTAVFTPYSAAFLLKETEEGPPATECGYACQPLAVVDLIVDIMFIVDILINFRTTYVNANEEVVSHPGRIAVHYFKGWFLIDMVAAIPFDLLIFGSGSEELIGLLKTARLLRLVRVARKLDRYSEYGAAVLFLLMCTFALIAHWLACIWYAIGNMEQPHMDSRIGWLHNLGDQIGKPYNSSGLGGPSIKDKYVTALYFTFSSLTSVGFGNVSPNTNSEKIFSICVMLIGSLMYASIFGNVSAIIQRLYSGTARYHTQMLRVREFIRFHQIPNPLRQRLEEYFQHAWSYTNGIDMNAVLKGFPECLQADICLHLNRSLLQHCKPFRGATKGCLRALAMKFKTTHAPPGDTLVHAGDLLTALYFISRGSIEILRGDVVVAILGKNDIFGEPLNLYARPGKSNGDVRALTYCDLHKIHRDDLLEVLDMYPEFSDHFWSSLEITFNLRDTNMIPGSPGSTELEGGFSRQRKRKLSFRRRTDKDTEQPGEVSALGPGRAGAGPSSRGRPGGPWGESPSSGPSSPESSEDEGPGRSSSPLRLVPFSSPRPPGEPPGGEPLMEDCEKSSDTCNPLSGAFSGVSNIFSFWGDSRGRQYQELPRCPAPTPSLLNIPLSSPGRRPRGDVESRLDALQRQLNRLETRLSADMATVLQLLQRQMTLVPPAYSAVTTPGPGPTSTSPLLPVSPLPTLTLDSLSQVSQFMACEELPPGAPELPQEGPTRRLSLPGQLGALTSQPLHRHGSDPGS

CYP2C9 [5] = target: T1, CYP2C9; assay: in vitro; conditions: microsomes, pH 7.4
M. smegmatis DprE1 WT = M. smegmatis DprE1 WT (Mycolicibacterium smegmatis, UniProt A0R607); assay: biochemical
M. smegmatis DprE1 WT, sequence (A0R607 whole entry): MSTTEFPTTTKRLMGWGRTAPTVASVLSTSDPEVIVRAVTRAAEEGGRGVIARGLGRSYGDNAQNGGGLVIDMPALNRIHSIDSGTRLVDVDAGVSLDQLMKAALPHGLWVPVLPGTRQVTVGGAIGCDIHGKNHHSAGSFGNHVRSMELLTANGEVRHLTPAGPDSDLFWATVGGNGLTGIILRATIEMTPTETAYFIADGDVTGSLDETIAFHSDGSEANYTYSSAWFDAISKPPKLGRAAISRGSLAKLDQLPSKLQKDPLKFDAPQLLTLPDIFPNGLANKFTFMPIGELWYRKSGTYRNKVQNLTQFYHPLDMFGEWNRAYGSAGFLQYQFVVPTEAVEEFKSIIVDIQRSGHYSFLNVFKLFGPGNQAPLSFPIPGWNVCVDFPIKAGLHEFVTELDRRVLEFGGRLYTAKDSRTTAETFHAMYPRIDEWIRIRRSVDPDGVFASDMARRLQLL

CYP2C9 [6] = target: T1, CYP2C9; assay: biochemical
[7] = MABA, 7 days, 90% reduction in fluorescence

CCOC(=O)NC(=O)c1ccsc1NC(=O)c1nc2ccccc2s1 [TCA1]
MIC (Mtb WT; [7]): 0.23 ± 0.012 µM (≈ 0.0863 µg/mL)

CCOC(=O)NC(=O)c1ccsc1NC(=O)c1nc2cnccc2s1 [TCA007]
reduction of CFU in mouse lungs (Mtb Erdman [1]): > 1.7 log10 CFU
inhibition of CYP2C19 (CYP2C19): no inhibition
cytotoxicity against HepG2 (HepG2 cell line): not cytotoxic
inhibition of CYP2D6 (CYP2D6): no inhibition
inhibition of CYP1A2 (CYP1A2): no inhibition
genetic toxicity [2]: no genetic toxicity
inhibitory effect for CYP2C9 (CYP2C9 [3]; microsomes): strong inhibitory effect
inhibition of CYP3A4 (CYP3A4): no inhibition
MIC (Mtb WT; [7]): 0.089 ± 0.0066 µM (≈ 0.0335 µg/mL)
cytotoxicity against Vero (Vero cell line): not cytotoxic
reduction of bacterial load in lung (Mtb Erdman [4]; 50 mg kg−1, oral): 1.7 log10 CFU
reduction of bacterial load in lung (Mtb Erdman [4]; 100 mg kg−1, oral): 2.3 log10 CFU
IC50 (hERG potassium channel): > 30 µM

O=C(Nc1sccc1C(=O)Nc1ncccn1)c1nc2cnccc2s1 [TCA020]
MIC WT (Mtb WT; [7]): 2.5 ± 0.48 µM (≈ 0.956 µg/mL)
MIC (Mtb WT; [7]): 2.5 µM (≈ 0.956 µg/mL)

CCOC(=O)NC(=O)c1cc(F)sc1NC(=O)c1nc2ccccc2s1 [TCA481]
more potent than TCA1 based on MIC (Mtb WT; MIC relative to TCA1): 5 fold
MIC (Mtb WT; [7]): 0.046 ± 0.0025 µM (≈ 0.0181 µg/mL)

CCOC(=O)NC(=O)c1ccsc1NC(=O)c1ccn2cnnc2c1 [TCA582]
IC50 ratio (CYP2C9 over DprE1) (CYP2C9 [3]): 33
IC50 (CYP2C9 [5]): 1830 nM

Cc1ccnc(NC(=O)c2ccsc2NC(=O)c2ccn3cnnc3c2)n1 [TCA711]
IC50 (M. smegmatis DprE1 WT; Figure 4D, read-out: DprE1 IC50): 30 nM
IC50 (CYP2C9 [6]): > 50 µM
IC50 ratio (CYP2C9 over DprE1) (CYP2C9 [3]): 1515

Cc1ccnc(NC(=O)c2ccsc2NC(=O)c2nc3cnccc3s2)n1 [TCA787]
IC50 (M. smegmatis DprE1 WT; M. smegmatis DprE1, Table 1, read-out: IC50 DprE1 WT): 96 ± 38 nM
MIC (Mtb WT; [7]): 0.44 ± 0.12 µM (≈ 0.174 µg/mL)
